Reference: article PMC5259778, “Candidate pheromone receptors of codling moth Cydia pomonella respond to pheromones and kairomones” (Scientific Reports, 2017)

Assays:
CpomOR6a = experiment: Single sensillum recordings, CpomOR6a expressed in Drosophila at1 OSNs; assay type: cell-based, Cydia pomonella; conditions: for Spike/s: 10 μg per stimulus
Text: (§1) To perform heterologous expression in D. melanogaster OSNs, CpomORs were amplified using primers in Table 2 and purified PCR products were cloned into the PCR8/GW/TOPO plasmid (Invitrogen) following the recommended protocol. Cassettes with inserts were then transferred from their PCR8/GW/TOPO plasmids to the destination vector (pUASg-HA.attB, constructed by E. Furger and J. Bischof, kindly provided by the Basler group, Zürich), using the Gateway LR Clonase II kit (Invitrogen). The integrity and orientation of inserts was confirmed by sequencing (Sanger sequencer, 3730xl). Transformant UAS-CpomOR3 and UAS-CpomOR1 lines were generated by Best Gene (Chino Hills, CA, USA), using the PhiC31 integrase system, while the transformant UAS-CpomOR6a line was generated in our labs. Briefly, recombinant pUASg-HA.attB-CpomOR plasmids were injected into embryos of a D. melanogaster line containing an attP insertion site within the third chromosome (genotype y1 M{vas-int.Dm}ZH-2A w*; M{3xP3-RFP.attP}ZH-86Fb), leading to non-random integration. To drive expression of CpomORs in at1 OSNs in place of the endogenous receptor Or67d, transformant UAS-CpomOR lines were crossed to the knock-in Or67d^GAL4 line (kindly provided by Barry Dickson) to generate double homozygous lines w^+;UAS-CpomOR; Or67d^GAL4. Additionally, to drive expression of CpomOR3 in ab3A OSNs, the UAS-CpomOR3 line was crossed to the Δhalo;Or22a-Gal4 mutant line[20][57]. To verify insertion of UAS-CpomORs constructs into the genome, gDNA was extracted and used as template in PCR with primers for the full ORF of CpomORs (Table 2).
(§2) CpomOR1 and CpomOR6a expressed in at1 OSNs, and CpomOR3 expressed in ab3A OSNs, were tested through single sensillum recordings (SSR). Three to 8-day-old flies were immobilized in 100 μL pipette tips with only the top half of the head protruding. The left antenna of each insect was gently pushed with a glass capillary against a double-sided adhesive tape placed on a piece of glass. This piece of glass and the pipette tip were fixed with dental wax on a microscope slide. Electrolytically sharpened tungsten electrodes (Harvard Apparatus Ltd, Edenbridge, United Kingdom) were used to penetrate the insect´s body. The reference electrode was manually inserted in the right eye of the fly, while the recording electrode was manoeuvred with a DC-3K micromanipulator equipped with a PM-10 piezo translator (Märzhäuser Wetzler GmbH, Wetzler, Germany) and inserted at the base of the determined sensilla. Signals coming from the olfactory sensory neurons were amplified 10 times with a probe (INR-02, Syntech, Hilversum, the Netherlands), digitally converted through an IDAC-4-USB (Syntech) interface, and visualized and analysed with the software Autospike v. 3.4 (Syntech). A constant flow of 0.65 m/s of humidified air (charcoal-filtered) was delivered through a glass tube to the antenna. The panel of odorants was given to the insect by inserting pipettes containing a piece of filter paper with the correspondent stimulus in a lateral hole of the glass tube and puffing a flow of 2.5 mL of air during 0.5 s through the pipette. For CpomOR1 and CpomOR6a the panel of odorants was prepared by applying 10 μL of a solution of 1.0 μg/μL of the compounds in Supplementary Dataset S2 and Supplementary Dataset S3, for a total amount of 10 μg per stimulus. In the case of CpomOR3, a similar dilution process was used for the dose response experiments of ethyl-(E,Z)-2,4-decadienoate and methyl-(E,Z)-2,4-decadienoate, as well for dose response of experiments of codlemone acetate in CpomOR6a. Compounds were diluted from concentrations ranging from 0.01 ng/μL to 10 μg/μL in decadic steps, allowing reaching concentrations from 100 pg to 100 μg per stimulus when 10 μL of the dilution was applied in the piece of filter paper. […]

CpomOR1 = experiment: Single sensillum recordings, CpomOR1 expressed in Drosophila at1 OSNs; assay type: cell-based, Cydia pomonella
Text: as §1, §2

[1] = replicate 1, 10 μg per stimulus
[2] = replicate 2, 10 μg per stimulus
[3] = replicate 3, 10 μg per stimulus
[4] = replicate 4, 10 μg per stimulus
[5] = replicate 5, 10 μg per stimulus

**Q.** With `C/C=C/C=C/CCCCCCCOC(C)=O` [codlemone acetate, (E,E)-8,10-dodecadien-1-yl acetate] as the compound, how does the “response compared with the solvent” value (CpomOR6a; 10 μg doses, Mann-Whitney U Test, p < 0.05) read?
**A.** strongest response significantly different from the solvent

**Q.** What about the threshold for detection (CpomOR6a; dose response, dose per stimulus) of the same compound?
**A.** 1.0 microgram

**Q.** What about the Spike/s (CpomOR6a; replicate 1) of the same compound?
**A.** 46 Spike/s

**Q.** What about the Spike/s (CpomOR6a; replicate 2) of the same compound?
**A.** 50 Spike/s

**Q.** What about the Spike/s (CpomOR6a; replicate 3) of the same compound?
**A.** 44 Spike/s

**Q.** And the Spike/s (CpomOR6a; replicate 4)?
**A.** 54 Spike/s

**Q.** And the Spike/s (CpomOR6a; replicate 5)?
**A.** 80 Spike/s

**Q.** What about the Spike/s (CpomOR6a; replicate 6) of the same compound?
**A.** 46 Spike/s

**Q.** What about the Spike/s (CpomOR6a; replicate 7) of the same compound?
**A.** 82 Spike/s

**Q.** And the Spike/s (CpomOR6a; replicate 8)?
**A.** 62 Spike/s

**Q.** What about the Spike/s (CpomOR6a; replicate 9) of the same compound?
**A.** 58 Spike/s

**Q.** And the Spikes/s (CpomOR1; [1])?
**A.** 2 Spikes/s

**Q.** What about the Spikes/s (CpomOR1; [2]) of the same compound?
**A.** 4 Spikes/s

**Q.** What about the Spikes/s (CpomOR1; [3]) of the same compound?
**A.** 4 Spikes/s

**Q.** And the Spikes/s (CpomOR1; [4])?
**A.** 2 Spikes/s

**Q.** And the Spikes/s (CpomOR1; [5])?
**A.** 4 Spikes/s

**Q.** Which results are given for `C/C=C/C=C/CCCCCCCO` [codlemone, (E,E)-8,10-dodecadien-1-ol]?
**A.** Spike/s (CpomOR6a; replicate 1): 0 Spike/s; Spike/s (CpomOR6a; replicate 2): 0 Spike/s; Spike/s (CpomOR6a; replicate 3): -4 Spike/s; Spike/s (CpomOR6a; replicate 4): 6 Spike/s; Spike/s (CpomOR6a; replicate 5): 0 Spike/s; Spike/s (CpomOR6a; replicate 6): 2 Spike/s; Spike/s (CpomOR6a; replicate 7): 14 Spike/s; Spike/s (CpomOR6a; replicate 8): 0 Spike/s; Spike/s (CpomOR6a; replicate 9): 2 Spike/s; Spikes/s (CpomOR1; replicate 1, 100 ng): -4 Spikes/s; Spikes/s (CpomOR1; [1]): 6 Spikes/s; Spikes/s (CpomOR1; replicate 2, 100 ng): 2 Spikes/s; Spikes/s (CpomOR1; [2]): 2 Spikes/s; Spikes/s (CpomOR1; replicate 3, 100 ng): 2 Spikes/s; Spikes/s (CpomOR1; [3]): 0 Spikes/s; Spikes/s (CpomOR1; replicate 4, 100 ng): -8 Spikes/s; Spikes/s (CpomOR1; [4]): -12 Spikes/s; Spikes/s (CpomOR1; replicate 5, 100 ng): -4 Spikes/s; Spikes/s (CpomOR1; [5]): 0 Spikes/s
